Results from US7420056B2, “Substituted bicyclic imidazo-3-ylamine compounds” (Gruenenthal GmbH, priority 2004, dated 2008).
pIC50: −log10 of the molar value. Where a name gives a salt, the structure may show the parent alone.

What follows are molecules tested against mGluR5 receptor (Sus scrofa, UniProt I3LUI7) (assay: Affinity for the mGluR5 receptor: inhibition of 3[H]-MPEP binding in pig brain homogenate). Conditions: 10 μM compound, 5 nM 3[H]-MPEP, read-out: mGluR5 receptor inhibition of ^3[H]-MPEP binding [10 μM] in % at a concentration of the example compounds of 10 μM.
Sequence of mGluR5 receptor (I3LUI7 19-1212): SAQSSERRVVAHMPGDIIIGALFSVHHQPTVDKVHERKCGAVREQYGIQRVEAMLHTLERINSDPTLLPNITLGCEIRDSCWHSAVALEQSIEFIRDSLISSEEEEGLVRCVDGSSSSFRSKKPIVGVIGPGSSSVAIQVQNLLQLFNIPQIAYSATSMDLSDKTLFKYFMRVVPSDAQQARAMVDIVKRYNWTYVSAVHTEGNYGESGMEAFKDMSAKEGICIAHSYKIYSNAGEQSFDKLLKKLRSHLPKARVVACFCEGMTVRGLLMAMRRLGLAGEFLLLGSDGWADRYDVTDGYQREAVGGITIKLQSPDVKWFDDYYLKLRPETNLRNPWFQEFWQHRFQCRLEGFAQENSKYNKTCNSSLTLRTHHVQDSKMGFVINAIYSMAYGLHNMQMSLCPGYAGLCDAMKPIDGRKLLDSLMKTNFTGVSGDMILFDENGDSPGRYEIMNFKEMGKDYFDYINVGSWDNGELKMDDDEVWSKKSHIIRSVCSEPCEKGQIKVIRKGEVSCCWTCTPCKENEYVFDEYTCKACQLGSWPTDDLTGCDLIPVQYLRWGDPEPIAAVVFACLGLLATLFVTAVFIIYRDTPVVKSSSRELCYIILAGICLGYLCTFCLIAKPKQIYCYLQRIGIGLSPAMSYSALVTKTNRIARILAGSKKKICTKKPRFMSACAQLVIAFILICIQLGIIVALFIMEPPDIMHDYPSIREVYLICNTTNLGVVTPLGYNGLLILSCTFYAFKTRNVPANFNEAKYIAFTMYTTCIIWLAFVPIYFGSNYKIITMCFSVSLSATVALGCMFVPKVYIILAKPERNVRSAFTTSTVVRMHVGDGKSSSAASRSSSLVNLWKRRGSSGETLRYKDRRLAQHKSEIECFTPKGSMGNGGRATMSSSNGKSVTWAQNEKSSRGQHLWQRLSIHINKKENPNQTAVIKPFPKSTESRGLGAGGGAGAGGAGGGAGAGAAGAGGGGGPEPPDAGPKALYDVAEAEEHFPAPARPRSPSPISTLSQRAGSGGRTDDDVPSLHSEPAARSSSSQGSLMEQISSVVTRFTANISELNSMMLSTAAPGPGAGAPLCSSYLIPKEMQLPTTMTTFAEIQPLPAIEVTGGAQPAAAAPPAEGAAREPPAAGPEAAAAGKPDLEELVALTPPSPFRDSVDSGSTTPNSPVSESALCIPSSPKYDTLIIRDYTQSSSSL
How it was run: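 Test compounds were screened at 10 μM for displacement of 5 nM [3H]-MPEP from pig brain homogenate (450 μg protein, pH 8.0 Hepes buffer) over 60 min at room temperature. After filtration, scintillation counting gave the read-out. 10 μM unlabelled MPEP set nonspecific binding.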
`Cc1cccc(C#Cc2cccc(-c3nc4ccc(Cl)cn4c3NC3CCCCC3)c2)n1` [Example 193, 6-chloro-N-cyclohexyl-2-(3-((6-methylpyridin-2-yl)ethynyl)phenyl)imidazo[1,2-a]pyridin-3-amine] gave an inhibition at 10 µM of 79%.
Molecule `Cc1cc(C)n2c(NCCc3ccccc3)c(-c3ccc(C#Cc4ccccc4)s3)nc2n1` [Example 194, 5,7-dimethyl-N-phenethyl-2-(5-(phenylethynyl)thiophen-2-yl)imidazo[1,2-a]pyrimidin-3-amine] has an inhibition at 10 µM of 30%.
For `COc1cccc(CCNc2c(-c3ccc(C#Cc4ccccc4)s3)nc3nc(C)cc(C)n23)c1` [Example 195, N-(3-methoxyphenethyl)-5,7-dimethyl-2-(5-(phenylethynyl)thiophen-2-yl)imidazo[1,2-a]pyrimidin-3-amine], the inhibition at 10 µM was 53%.
`COc1cccc(CCNc2c(-c3cc(C#Cc4ccccc4)cs3)nc3nc(C)cc(C)n23)c1` [Example 196, N-(3-methoxyphenethyl)-5,7-dimethyl-2-(4-(phenylethynyl)thiophen-2-yl)imidazo[1,2-a]pyrimidin-3-amine] showed an inhibition at 10 µM of 68%.
Work on `COc1cccc(CCNc2c(-c3ccc(C#Cc4ccccc4)o3)nc3nc(C)cc(C)n23)c1` [Example 197, N-(3-methoxyphenethyl)-5,7-dimethyl-2-(5-(phenylethynyl)furan-2-yl)imidazo[1,2-a]pyrimidin-3-amine] yielded an inhibition at 10 µM of 31%.
`Cc1cccn2c(NCc3ccc(Cl)cc3)c(-c3ccc(C#Cc4ccccc4)s3)nc12` [Example 198, N-(4-chlorobenzyl)-8-methyl-2-(5-(phenylethynyl)thiophen-2-yl)imidazo[1,2-a]pyridin-3-amine] was tested, and the inhibition at 10 µM was 67%.
With `COc1cccc(CCNc2c(-c3cc(C#Cc4ccccc4)cs3)nc3cccc(C)n23)c1` [Example 199, N-(3-methoxyphenethyl)-5-methyl-2-(4-(phenylethynyl)thiophen-2-yl)imidazo[1,2-a]pyridin-3-amine] the inhibition at 10 µM was 57%.
Work on `CCCCC(C)(C)Nc1c(-c2cc(C#Cc3ccccc3)cs2)nc2cnccn12` [Example 200, N-(2-methylhexan-2-yl)-2-(4-(phenylethynyl)thiophen-2-yl)imidazo[1,2-a]pyrazin-3-amine] yielded an inhibition at 10 µM of 62%.
`C(#Cc1csc(-c2nc3cnccn3c2NCCc2ccccc2)c1)c1ccccc1` [Example 201, N-phenethyl-2-(4-(phenylethynyl)thiophen-2-yl)imidazo[1,2-a]pyrazin-3-amine] showed an inhibition at 10 µM of 55%.
In the case of `COc1cccc(CCNc2c(-c3cc(C#Cc4ccccc4)cs3)nc3cnccn23)c1` [Example 202, N-(3-methoxyphenethyl)-2-(4-(phenylethynyl)thiophen-2-yl)imidazo[1,2-a]pyrazin-3-amine], the inhibition at 10 µM was 70%.
For `C(#Cc1csc(-c2nc3cnccn3c2NCCc2cccs2)c1)c1ccccc1` [Example 203, 2-(4-(phenylethynyl)thiophen-2-yl)-N-(2-(thiophen-2-yl)ethyl)imidazo[1,2-a]pyrazin-3-amine], the inhibition at 10 µM was 60%.
`Clc1ccc(CNc2c(-c3ccc(C#Cc4ccccc4)s3)nc3ccccn23)cc1` [Example 204, N-(4-chlorobenzyl)-2-(5-(phenylethynyl)thiophen-2-yl)imidazo[1,2-a]pyridin-3-amine] gave an inhibition at 10 µM of 30%.

Same assay, conditions: 3[H]-MPEP binding
In the case of `Cc1cccc(C#Cc2ccc(-c3nc4cnccn4c3NC(C)(C)C)s2)n1` [Example 158, N-tert-butyl-2-(5-((6-methylpyridin-2-yl)ethynyl)thiophen-2-yl)imidazo[1,2-a]pyrazin-3-amine hydrochloride], the pIC50 was 7.48.
In the case of `CC(C)(C)Nc1c(-c2ccc(C#Cc3ncccc3F)s2)nc2cnccn12` [Example 159, N-tert-butyl-2-(5-((3-fluoropyridin-2-yl)ethynyl)thiophen-2-yl)imidazo[1,2-a]pyrazin-3-amine hydrochloride], the pIC50 was 8.00.
In the case of `CNc1cccc(C#Cc2ccc(-c3nc4cnccn4c3NC(C)(C)C)s2)c1` [Example 160, N-tert-butyl-2-(5-((3-(methylamino)phenyl)ethynyl)thiophen-2-yl)imidazo[1,2-a]pyrazin-3-amine hydrochloride], the pIC50 was 7.03.
`Cc1ccc(C#Cc2ccc(-c3nc4cnccn4c3NC(C)(C)C)s2)cc1` [Example 161, N-tert-butyl-2-(5-(p-tolylethynyl)thiophen-2-yl)imidazo[1,2-a]pyrazin-3-amine] was tested, and the pIC50 was 5.11.
`Cc1ccccc1C#Cc1ccc(-c2nc3cnccn3c2NC(C)(C)C)s1` [Example 162, N-tert-butyl-2-(5-(o-tolylethynyl)thiophen-2-yl)imidazo[1,2-a]pyrazin-3-amine hydrochloride] gave a pIC50 of 5.37.
Molecule `Cc1cc(-c2nc3cnccn3c2NC(C)(C)C)sc1C#Cc1ccccn1` [Example 164, N-tert-butyl-2-(4-methyl-5-(pyridin-2-ylethynyl)thiophen-2-yl)imidazo[1,2-a]pyrazin-3-amine hydrochloride] has a pIC50 of 7.27.
`CC(C)(C)Nc1c(-c2ccc(C#Cc3cccc(F)n3)s2)nc2cnccn12` [Example 165, N-tert-butyl-2-(5-((6-fluoropyridin-2-yl)ethynyl)thiophen-2-yl)imidazo[1,2-a]pyrazin-3-amine] was tested, and the pIC50 was 7.74.
`CC(C)(C)Nc1c(-c2ccc(C#Cc3ccccc3[N+](=O)[O-])s2)nc2cnccn12` [Example 166, N-tert-butyl-2-(5-((2-nitrophenyl)ethynyl)thiophen-2-yl)imidazo[1,2-a]pyrazin-3-amine] gave a pIC50 of 4.95.
`CC(C)(C)Nc1c(-c2ccc(C#Cc3ccccn3)s2)nc2c(Cl)nccn12` [Example 167, N-tert-butyl-8-chloro-2-(5-(pyridin-2-ylethynyl)thiophen-2-yl)imidazo[1,2-a]pyrazin-3-amine] was tested, and the pIC50 was 7.92.
With `COc1cccc(C#Cc2ccc(-c3nc4cnccn4c3NC(C)(C)C)s2)n1` [Example 168, N-tert-butyl-2-(5-((6-methoxypyridin-2-yl)ethynyl)thiophen-2-yl)imidazo[1,2-a]pyrazin-3-amine] the pIC50 was 6.19.
Molecule `CC(C)(C)Nc1c(-c2ccc(C#Cc3ccc(F)cn3)s2)nc2cnccn12` [Example 169, N-tert-butyl-2-(5-((5-fluoropyridin-2-yl)ethynyl)thiophen-2-yl)imidazo[1,2-a]pyrazin-3-amine hydrochloride] has a pIC50 of 7.96.
Work on `COc1cncc(C#Cc2ccc(-c3nc4cnccn4c3NC(C)(C)C)s2)c1` [Example 171, N-tert-butyl-2-(5-((5-methoxypyridin-3-yl)ethynyl)thiophen-2-yl)imidazo[1,2-a]pyrazin-3-amine hydrochloride] yielded a pIC50 of 6.44.
`CC(C)(C)Nc1c(-c2ccc(C#Cc3cncc(C#N)c3)s2)nc2cnccn12` [Example 172, 5-((5-(3-(tert-butylamino)imidazo[1,2-a]pyrazin-2-yl)thiophen-2-yl)ethynyl)nicotinonitrile hydrochloride] gave a pIC50 of 7.44.
Work on `CSc1cccc(C#Cc2ccc(-c3nc4cnccn4c3NC(C)(C)C)s2)c1` [Example 173, N-tert-butyl-2-(5-((3-(methylthio)phenyl)ethynyl)thiophen-2-yl)imidazo[1,2-a]pyrazin-3-amine] yielded a pIC50 of 6.10.
In the case of `COC(=O)c1cccc(C#Cc2ccc(-c3nc4cnccn4c3NC(C)(C)C)s2)c1` [Example 174, methyl-3-((5-(3-(tert-butylamino)imidazo[1,2-a]pyrazin-2-yl)thiophen-2-yl)ethynyl)benzoate], the pIC50 was 6.08.
Molecule `CC(C)(C)Nc1c(-c2ccc(C#Cc3ncc(F)cc3F)s2)nc2cnccn12` [Example 175, N-tert-butyl-2-(5-((3,5-difluoropyridin-2-yl)ethynyl)thiophen-2-yl)imidazo[1,2-a]pyrazin-3-amine] has a pIC50 of 7.29.
`CC(C)(C)Nc1c(-c2cnc(C#Cc3ccncc3)s2)nc2cnccn12` [Example 177, N-tert-butyl-2-(2-(pyridin-4-ylethynyl)thiazol-5-yl)imidazo[1,2-a]pyrazin-3-amine] was tested, and the pIC50 was 7.80.
Work on `CC(C)(C)Nc1c(-c2ccc(C#Cc3cccc(C=O)c3)s2)nc2cnccn12` [Example 178, 3-((5-(3-(tert-butylamino)imidazo[1,2-a]pyrazin-2-yl)thiophen-2-yl)ethynyl)benzaldehyde] yielded a pIC50 of 7.62.
With `CC(C)(C)Nc1c(-c2ccc(C#Cc3cc(C#N)ccc3F)s2)nc2cnccn12` [Example 179, 3-((5-(3-(tert-butylamino)imidazo[1,2-a]pyrazin-2-yl)thiophen-2-yl)ethynyl)-4-fluorobenzonitrile] the pIC50 was 7.59.
`CC(C)(C)Nc1c(-c2ccc(C#Cc3cccc(C(F)(F)F)c3)s2)nc2cnccn12` [Example 180, N-tert-butyl-2-(5-((3-(trifluoromethyl)phenyl)ethynyl)thiophen-2-yl)imidazo[1,2-a]pyrazin-3-amine hydrochloride] gave a pIC50 of 6.24.
`CC(C)(C)Nc1c(-c2cnc(C#Cc3ccccn3)s2)nc2cnccn12` [Example 181, N-tert-butyl-2-(2-(pyridin-2-ylethynyl)thiazol-5-yl)imidazo[1,2-a]pyrazin-3-amine] gave a pIC50 of 7.74.
In the case of `Cc1cc(C#Cc2ccccc2)sc1-c1nc2cnccn2c1NC(C)(C)C` [Example 182, N-tert-butyl-2-(3-methyl-5-(phenylethynyl)thiophen-2-yl)imidazo[1,2-a]pyrazin-3-amine hydrochloride], the pIC50 was 5.05.
`Cc1cc(C#Cc2ccccn2)sc1-c1nc2cnccn2c1NC(C)(C)C` [Example 183, N-tert-butyl-2-(3-methyl-5-(pyridin-2-ylethynyl)thiophen-2-yl)imidazo[1,2-a]pyrazin-3-amine hydrochloride] gave a pIC50 of 6.64.
`C=Cc1cccc(C#Cc2ccc(-c3nc4cnccn4c3NC(C)(C)C)s2)c1` [Example 184, N-tert-butyl-2-(5-((3-vinylphenyl)ethynyl)thiophen-2-yl)imidazo[1,2-a]pyrazin-3-amine] gave a pIC50 of 6.57.
With `CC(C)(C)Nc1c(-c2ccc(C#Cc3c[nH]cn3)s2)nc2cnccn12` [Example 185, 2-(5-((1H-imidazol-4-yl)ethynyl)thiophen-2-yl)-N-tert-butylimidazo[1,2-a]pyrazin-3-amine hydrochloride] the pIC50 was 6.72.
